Results from article PMC10449633 (Nature Chemical Biology, 2023).
Where “and” joins values, the source holds several entries; their conditions need not be identical. Equal values may be shown once. Entries after “also recorded” stand apart in the source; their conditions may differ. Read-outs that look alike come from different tables or passages of the source. Numbered stars: 1 amine (or outer) side, 2 acyl side, 3 side chain; on linkers, the order of the positions; unused ones are H or OH. Square brackets hold non-standard residues; d marks the D form. Peptide text beside a SMILES is read from it. ξ: configuration not given here. X1 = CN(C(Cc1cn(Cc2ccc(Br)cc2)c2ccccc12)C(=O)[*:2])[*:1]; ξAla(CF3) = NC(CC(F)(F)F)C(=O)O; X2 = N#CCCC(O[*:1])C(=O)[*:2]; NMeL = CN[CH](CC(C)C)C(=O)O; NMeA = CN[CH](C)C(=O)O

Experiments:
[1] = test system: collagen antibody-induced arthritis in BALB/c mice; test: Anticollagen antibody-induced arthritis model, clinical scores; format: in vivo, mouse
Sec61α (HEK 293 FRT) = biological target: T1, Sec61α (HEK 293 FRT) (Homo sapiens, UniProt P61619); test: Luciferase reporter assay in parental HEK 293 FRT cells; format: cell-based; conditions: HEK293, 24 h
T1 construct: host or cells: HEK293 Flp-In T-REx (parental, 'HEK 293 FRT')
Description: All mutants were sequence verified.

Sec61α V303A = Sec61α V303A (Canis lupus familiaris, UniProt P38377, V303A); test: Luciferase reporter assay in HEK293 cells expressing Sec61α V303A; set-up: remaining activity: dose or concentration left out as unconfirmed; conditions: HEK293, 24 h, read-out: luciferase reporter activity (% of no-drug control), V303A
Description: (§1) Data are mean values ± s.d. from n = 2 independent experiments.
(§2) HEK293T cells (0.3 × 10^6) were seeded per well of a six-well plate and incubated at 37 °C in 5% CO2 for 24 h to adhere. Each of the two wells was transfected with 1 µg of plasmid encoding a luciferase with the signal peptide of either VCAM1 or pPL using PEI in a 5:1 ratio, after which cells were returned to the incubator for a further 24 h. Transfected cells were then resuspended following trypsinization, cell count estimated using a TC20 Automated Cell Counter (BioRad) and diluted to seed a 96-well flat-bottom plate with 1.6 × 10^4 cells per well. […] Cells were then incubated for a further 24 h, after which the luciferase-containing media were transferred to a clean 96-well plate and stored at −20 °C. Luciferase activity of the media was estimated using a Gaussia-GLOW Juice Luciferase Assay kit from PJK Biotech GmbH as per the manufacturer’s instructions. Luminescence was measured using an EnSpire Multimode plate reader (PerkinElmer). Background luminescence from media placed in a well with neither cells nor drug was subtracted from all values, and measurements were calculated as a percentage of luminescence intensity of a well expressing the appropriate luciferase construct in the absence of any drug. Curves were fitted, and IC50 values were calculated using GraphPad Prism 8.
(§3) WT canine Sec61 was cloned into pcDNA5/FRT/TO (Thermo Fisher Scientific), and point mutations were generated using PCR. All mutants were sequence verified. HEK293 Flp-In T-REx cells (Thermo Fisher Scientific, R78007) were cultured in Dulbecco’s modified Eagle’s medium (Gibco) supplemented with 10% FBS (Gibco) at 37 °C in a humidified 5% CO2 atmosphere. Approximately 0.3 µg of pOG44 and 1 µg of targeting construct plasmids were mixed in 250 µl of OptiMEM (Thermo Fisher Scientific, 51985-026). A total of 3 µl (3 µg) Lipofectamine3000 transfection reagent was then added to the DNA mix and incubated at room temperature for 20 min, and the whole mixture was added to the cells. Cells were exposed to 100 µg ml^−^1 hygromycin B (Invitrogen) and 10 µg ml^−^1 blasticidin for 3–4 weeks until the appearance of resistant colonies. Colonies were expanded into T75 flasks and induced with doxycycline (Sigma-Aldrich, D9891) at a concentration of 1–5 µg ml^−^1 for 48 h. Cells were collected, and total RNA was extracted followed by cDNA amplification and sequencing of Sec61 with gene-specific PCR primers to confirm. Cells were then used for the luciferase reporter assays as above.
(§4) Data are mean values ± SD and are representative of n = 2 independent experiments.

Sec61α N300A = Sec61α N300A (Canis lupus familiaris, UniProt P38377, N300A); test: Luciferase reporter assay in HEK293 cells expressing Sec61α N300A; set-up: remaining activity: dose or concentration left out as unconfirmed
Description: as §1, §2, §3, §4

[2] = test system: Sec61 WT TNFa(FL) reporter cells; test: CTG (CellTiter-Glo) viability of TNFa(FL) reporter cells expressing Sec61 WT; format: cell-based; conditions: replicate columns
Description: Supplement 41589_2023_1326_MOESM7_ESM.xlsx, sheet "Panel B" | column: Sec61 WT - CTG (TNFa(FL))

Sec61α Q127A = Sec61α Q127A (Canis lupus familiaris, UniProt P38377, Q127A); test: Luciferase reporter assay in HEK293 cells expressing Sec61α Q127A; set-up: remaining activity: dose or concentration left out as unconfirmed; conditions: HEK293, 24 h, read-out: luciferase reporter activity (% of no-drug control), Q127A
Description: as §1, §2, §3, §4

SARS-CoV-2 = format: cell-based; conditions: 48 h
Vero E6 cells = conditions: Mock infected 48 h
Sec61α S305A = Sec61α S305A (Canis lupus familiaris, UniProt P38377, S305A); test: Luciferase reporter assay in HEK293 cells expressing Sec61α S305A; set-up: remaining activity: dose or concentration left out as unconfirmed; conditions: HEK293, 24 h, read-out: luciferase reporter activity (% of no-drug control), S305A
Description: as §1, §2
(§5) HEK293 Flp-In T-REx cells (Thermo Fisher Scientific, R78007) were cultured in Dulbecco’s modified Eagle’s medium (Gibco) supplemented with 10% FBS (Gibco) at 37 °C in a humidified 5% CO2 atmosphere. Approximately 0.3 µg of pOG44 and 1 µg of targeting construct plasmids were mixed in 250 µl of OptiMEM (Thermo Fisher Scientific, 51985-026). A total of 3 µl (3 µg) Lipofectamine3000 transfection reagent was then added to the DNA mix and incubated at room temperature for 20 min, and the whole mixture was added to the cells. Cells were exposed to 100 µg ml^−^1 hygromycin B (Invitrogen) and 10 µg ml^−^1 blasticidin for 3–4 weeks until the appearance of resistant colonies. Colonies were expanded into T75 flasks and induced with doxycycline (Sigma-Aldrich, D9891) at a concentration of 1–5 µg ml^−^1 for 48 h. Cells were collected, and total RNA was extracted followed by cDNA amplification and sequencing of Sec61 with gene-specific PCR primers to confirm. Cells were then used for the luciferase reporter assays as above.
as §4

Sec61α T86M = Sec61α T86M (Canis lupus familiaris, UniProt P38377, T86M); test: Luciferase reporter assay in HEK293 cells expressing Sec61α T86M; conditions: HEK293, 24 h, read-out: luciferase reporter activity (% of no-drug control), T86M
Sec61α T86M, sequence (P60468 whole entry): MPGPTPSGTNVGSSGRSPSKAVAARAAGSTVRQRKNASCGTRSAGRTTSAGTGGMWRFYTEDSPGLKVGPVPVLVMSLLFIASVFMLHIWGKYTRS
Sec61α T86M, sequence (P38377 whole entry T86M): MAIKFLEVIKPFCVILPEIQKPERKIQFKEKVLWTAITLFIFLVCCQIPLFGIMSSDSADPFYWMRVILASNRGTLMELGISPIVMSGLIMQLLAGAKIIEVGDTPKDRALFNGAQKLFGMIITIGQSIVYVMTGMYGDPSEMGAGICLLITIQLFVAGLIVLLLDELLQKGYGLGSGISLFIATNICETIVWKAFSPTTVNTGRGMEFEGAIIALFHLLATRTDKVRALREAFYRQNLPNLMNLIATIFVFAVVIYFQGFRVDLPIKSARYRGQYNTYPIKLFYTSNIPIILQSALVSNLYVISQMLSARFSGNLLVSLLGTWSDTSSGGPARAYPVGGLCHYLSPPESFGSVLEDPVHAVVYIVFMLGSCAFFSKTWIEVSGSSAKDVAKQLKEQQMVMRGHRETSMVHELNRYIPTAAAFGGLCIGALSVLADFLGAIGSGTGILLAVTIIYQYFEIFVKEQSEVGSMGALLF
Sec61α T86M, sequence (P60059 whole entry, further chain): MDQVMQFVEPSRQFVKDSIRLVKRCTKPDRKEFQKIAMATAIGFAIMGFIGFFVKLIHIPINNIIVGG
Description: as §1, §2, §5, §4

Sec61α S305A, sequence (P38377 whole entry S305A): as the sequence (P38377 whole entry T86M) above, with M86T, S305A counted along it
Sec61α S305A, sequence (P60059 whole entry, further chain): as the sequence (P60059 whole entry, further chain) above
Sec61α S305A, sequence (P60468 whole entry, further chain): as the sequence (P60468 whole entry) above
Sec61α V303A, sequence (P60059 whole entry): as the sequence (P60059 whole entry, further chain) above
Sec61α V303A, sequence (P38377 whole entry V303A): as the sequence (P38377 whole entry T86M) above, with M86T, V303A counted along it
Sec61α V303A, sequence (P60468 whole entry, further chain): as the sequence (P60468 whole entry) above
Sec61α Q127A, sequence (P60059 whole entry): as the sequence (P60059 whole entry, further chain) above
Sec61α Q127A, sequence (P60468 whole entry, further chain): as the sequence (P60468 whole entry) above
Sec61α Q127A, sequence (P38377 whole entry Q127A): as the sequence (P38377 whole entry T86M) above, with M86T, Q127A counted along it
T1 sequence (P60468 whole entry): as the sequence (P60468 whole entry) above
T1 sequence (P60059 whole entry, further chain): as the sequence (P60059 whole entry, further chain) above
T1 sequence (P61619 whole entry): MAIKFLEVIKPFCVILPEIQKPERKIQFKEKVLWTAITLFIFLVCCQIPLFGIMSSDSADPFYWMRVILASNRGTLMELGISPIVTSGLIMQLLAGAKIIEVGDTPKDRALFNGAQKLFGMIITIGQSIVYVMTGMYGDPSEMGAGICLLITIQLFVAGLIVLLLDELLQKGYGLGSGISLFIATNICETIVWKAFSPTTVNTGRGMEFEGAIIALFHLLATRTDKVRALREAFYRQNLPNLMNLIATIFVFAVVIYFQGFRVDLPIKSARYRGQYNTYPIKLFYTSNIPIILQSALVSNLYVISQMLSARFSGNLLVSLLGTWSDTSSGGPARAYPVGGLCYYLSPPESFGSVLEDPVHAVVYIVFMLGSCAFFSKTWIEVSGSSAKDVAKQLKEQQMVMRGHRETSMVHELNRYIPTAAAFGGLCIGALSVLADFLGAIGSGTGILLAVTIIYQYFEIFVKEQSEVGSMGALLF
Sec61α N300A, sequence (P60468 whole entry): as the sequence (P60468 whole entry) above
Sec61α N300A, sequence (P60059 whole entry, further chain): as the sequence (P60059 whole entry, further chain) above
Sec61α N300A, sequence (P38377 whole entry N300A): as the sequence (P38377 whole entry T86M) above, with M86T, N300A counted along it

CC(C)CC1NC(=O)C(Cc2cn(Cc3ccc(Br)cc3)c3ccccc23)N(C)C(=O)C(CC(F)(F)F)NC(=O)C(CC(C)C)N(C)C(=O)C(CC(F)(F)F)NC(=O)C(CCC#N)OC(=O)C(C)N(C)C1=O (stereo not drawn) [KZR-8445] (cyclo([X1]L[NMeA][X2][ξAla(CF3)][NMeL][ξAla(CF3)]); configuration not given here)
P versus vehicle (one-way ANOVA), disease progression ([1]; 10 mg kg−1 thrice weekly): 0.01
P versus vehicle (one-way ANOVA), disease progression ([1]; 20 mg kg−1 thrice weekly): < 0.0001
P versus vehicle, disease progression ([1]; 20 mg kg−1 weekly): 0.007
efficacy of weekly administration ([1]; 20 mg kg−1 weekly): effective
arthritis disease progression / clinical symptoms ([1]; IV thrice weekly after onset of disease): blocked disease progression in a dose-dependent manner; also recorded: ameliorated clinical arthritis symptoms
anti-inflammatory effect compared with dexamethasone ([1]; highest dose): stronger anti-inflammatory effect than the corticosteroid dexamethasone
remaining activity at 0.00152 µM (Sec61α (HEK 293 FRT); Drug nM (log10) 0.18303, read-out: luciferase reporter activity (% of no-drug control)): 88.7%
remaining activity at 0.00457 µM (Sec61α (HEK 293 FRT); Drug nM (log10) 0.660151, read-out: luciferase reporter activity (% of no-drug control)): 75.3%
remaining activity at 0.04115 µM (Sec61α (HEK 293 FRT); Drug nM (log10) 1.61439, read-out: luciferase reporter activity (% of no-drug control)): 27%
remaining activity at 0.1235 µM (Sec61α (HEK 293 FRT); Drug nM (log10) 2.09151, read-out: luciferase reporter activity (% of no-drug control)): 12.8%
remaining activity at 0.37 µM (Sec61α (HEK 293 FRT); Drug nM (log10) 2.56864, read-out: luciferase reporter activity (% of no-drug control)): 4.89%
remaining activity at 1.111 µM (Sec61α (HEK 293 FRT); Drug nM (log10) 3.04576, read-out: luciferase reporter activity (% of no-drug control)): 2.41%
remaining activity at 3.33 µM (Sec61α (HEK 293 FRT); Drug nM (log10) 3.52288, read-out: luciferase reporter activity (% of no-drug control)): 2.03%
remaining activity at 10 µM (Sec61α (HEK 293 FRT); Drug nM (log10) 4, read-out: luciferase reporter activity (% of no-drug control)): 2.36%
remaining activity at 0.00050805 µM (Sec61α (HEK 293 FRT); Drug nM (log10) -0.29409, read-out: luciferase reporter activity (% of no-drug control)): 92.4%
remaining activity at 0.00018303 µM (Sec61α V303A; Drug nM (log10) 0.18303): 95.1%
remaining activity at 0.000660151 µM (Sec61α V303A; Drug nM (log10) 0.660151): 82.2%
remaining activity at 0.00113727 µM (Sec61α V303A; Drug nM (log10) 1.13727): 64.5%
remaining activity (Sec61α V303A; Drug nM (log10) 1.61439): 42%
remaining activity (Sec61α V303A; Drug nM (log10) 2.09151): 21.1%
remaining activity (Sec61α V303A; Drug nM (log10) 2.56864): 8.79%
remaining activity (Sec61α V303A; Drug nM (log10) 3.04576): 3.93%
remaining activity (Sec61α V303A; Drug nM (log10) 3.52288): 2.95%
remaining activity at 0.004 µM (Sec61α V303A; Drug nM (log10) 4): 3.21%
remaining activity at 0.00050805 µM (Sec61α V303A; Drug nM (log10) -0.29409): 96.2%
remaining activity at 0.00018303 µM (Sec61α N300A; HEK293, 24 h, read-out: luciferase reporter activity (% of no-drug control), N300A, Drug nM (log10) 0.18303): 95.9%
remaining activity at 0.000660151 µM (Sec61α N300A; HEK293, 24 h, read-out: luciferase reporter activity (% of no-drug control), N300A, Drug nM (log10) 0.660151): 88.9%
remaining activity at 0.00113727 µM (Sec61α N300A; HEK293, 24 h, read-out: luciferase reporter activity (% of no-drug control), N300A, Drug nM (log10) 1.13727): 80.9%
remaining activity (Sec61α N300A; HEK293, 24 h, read-out: luciferase reporter activity (% of no-drug control), N300A, Drug nM (log10) 1.61439): 74.8%
remaining activity (Sec61α N300A; HEK293, 24 h, read-out: luciferase reporter activity (% of no-drug control), N300A, Drug nM (log10) 2.09151): 69.1%
remaining activity (Sec61α N300A; HEK293, 24 h, read-out: luciferase reporter activity (% of no-drug control), N300A, Drug nM (log10) 2.56864): 69.9%
remaining activity (Sec61α N300A; HEK293, 24 h, read-out: luciferase reporter activity (% of no-drug control), N300A, Drug nM (log10) 3.04576): 64%
remaining activity (Sec61α N300A; HEK293, 24 h, read-out: luciferase reporter activity (% of no-drug control), N300A, Drug nM (log10) 3.52288): 62%
remaining activity at 0.004 µM (Sec61α N300A; HEK293, 24 h, read-out: luciferase reporter activity (% of no-drug control), N300A, Drug nM (log10) 4): 67.2%
remaining activity at 0.000508 µM (Sec61α N300A; HEK293, 24 h, read-out: luciferase reporter activity (% of no-drug control), N300A, Drug nM (log10) -0.29409): 96.5%
effect of N300A Sec61α expression on sensitivity in secreted GLuc assay (Sec61α N300A; HEK293 cells): conferred resistance
Sec61 WT - CTG (TNFa(FL)) ([2]; 0.32 nM): 111 and 110 and 116
Sec61 WT - CTG (TNFa(FL)) ([2]; 1.6 nM): 106 and 113 and 116
Sec61 WT - CTG (TNFa(FL)) ([2]; 8 nM): 110 and 111 and 115
Sec61 WT - CTG (TNFa(FL)) ([2]; 40 nM): 112 and 121 and 115
Sec61 WT - CTG (TNFa(FL)) ([2]; 200 nM): 108 and 114 and 116
Sec61 WT - CTG (TNFa(FL)) ([2]; 1000 nM): 105 and 108 and 113
Sec61 WT - CTG (TNFa(FL)) ([2]; 5000 nM): 95 and 105 (2×)
Sec61 WT - CTG (TNFa(FL)) ([2]; 25000 nM): 92 and 89 (2×)
remaining activity at 0.00018303 µM (Sec61α Q127A; Drug nM (log10) 0.18303): 76.3%
remaining activity at 0.000660151 µM (Sec61α Q127A; Drug nM (log10) 0.660151): 76.5%
remaining activity at 0.00113727 µM (Sec61α Q127A; Drug nM (log10) 1.13727): 51.2%
remaining activity (Sec61α Q127A; Drug nM (log10) 1.61439): 32.3%
remaining activity (Sec61α Q127A; Drug nM (log10) 2.09151): 14.7%
remaining activity (Sec61α Q127A; Drug nM (log10) 2.56864): 6.52%
remaining activity (Sec61α Q127A; Drug nM (log10) 3.04576): 3.21%
remaining activity (Sec61α Q127A; Drug nM (log10) 3.52288): 2.56%
remaining activity at 0.004 µM (Sec61α Q127A; Drug nM (log10) 4): 2.87%
remaining activity at 0.000508 µM (Sec61α Q127A; Drug nM (log10) -0.29409): 88.9%
viral genome copy number (SARS-CoV-2; 0.01 uM): 25500000 and 22400000 and 23500000
viral genome copy number (SARS-CoV-2; 0.04 uM): 23500000 and 23900000 and 21400000
viral genome copy number (SARS-CoV-2; 0.12 uM): 29500000 and 28600000 and 23600000
viral genome copy number (SARS-CoV-2; 0.37 uM): 48700000 and 30700000 and 26200000
viral genome copy number (SARS-CoV-2; 1.11 uM): 22100000 and 25700000 and 28600000
viral genome copy number (SARS-CoV-2; 3.33 uM): 11600000 and 10500000 and 12800000
viral genome copy number (SARS-CoV-2; 10 uM): 8080000 and 9090000 and 8060000
cell viability (Vero E6 cells; 0.01 uM): 91.0268 and 102.167 and 114.581
cell viability (Vero E6 cells; 0.04 uM): 90.9801 and 99.0668 and 98.0954
cell viability (Vero E6 cells; 0.12 uM): 93.1234 and 96.6644 and 96.0334
cell viability (Vero E6 cells; 0.37 uM): 79.1404 and 83.8559 and 91.7442
cell viability (Vero E6 cells; 1.11 uM): 83.2343 and 88.2826 and 88.422
cell viability (Vero E6 cells; 3.33 uM): 85.0888 and 89.2631 and 88.8876
cell viability (Vero E6 cells; 10 uM): 76.0738 and 86.0259 and 84.7152
remaining activity at 0.00018303 µM (Sec61α S305A; Drug nM (log10) 0.18303): 82.1%
remaining activity at 0.000660151 µM (Sec61α S305A; Drug nM (log10) 0.660151): 68.1%
remaining activity at 0.00113727 µM (Sec61α S305A; Drug nM (log10) 1.13727): 47.4%
remaining activity (Sec61α S305A; Drug nM (log10) 1.61439): 27.2%
remaining activity (Sec61α S305A; Drug nM (log10) 2.09151): 13%
remaining activity (Sec61α S305A; Drug nM (log10) 2.56864): 5.54%
remaining activity (Sec61α S305A; Drug nM (log10) 3.04576): 3.19%
remaining activity (Sec61α S305A; Drug nM (log10) 3.52288): 2.55%
remaining activity at 0.004 µM (Sec61α S305A; Drug nM (log10) 4): 3.24%
remaining activity at 0.00050805 µM (Sec61α S305A; Drug nM (log10) -0.29409): 89.3%
remaining activity at 0.00018303 µM (Sec61α T86M; Drug nM (log10) 0.18303): 84.6%
remaining activity at 0.000660151 µM (Sec61α T86M; Drug nM (log10) 0.660151): 76%
remaining activity at 0.00113727 µM (Sec61α T86M; Drug nM (log10) 1.13727): 53.5%
remaining activity (Sec61α T86M; Drug nM (log10) 1.61439): 28.5%
remaining activity (Sec61α T86M; Drug nM (log10) 2.09151): 12.1%
remaining activity (Sec61α T86M; Drug nM (log10) 2.56864): 5.08%
remaining activity (Sec61α T86M; Drug nM (log10) 3.04576): 2.62%
remaining activity (Sec61α T86M; Drug nM (log10) 3.52288): 2.32%
remaining activity at 0.004 µM (Sec61α T86M; Drug nM (log10) 4): 2.59%
